Assays:
zein protein = experiment: Mildness (Zein solubilization), standard Zein assay; details: Table 5; 1% aqueous solution, 1.5 g zein, one hour
Experimental: Mildness (Zein Solubilization)
This test is based on the correlation noted between the amount of zein solubilized by an aqueous surfactant solution and its irritancy; the more zein a surfactant dissolves, the greater its intrinsic irritation potential. The procedure is conducted gravimetrically: a 1% aqueous solution of surfactant mixture is added to 1.5 g of zein protein and this mixture is allowed to stir at a constant rate for one hour. This mixture is then centrifuged (for approximately 25 minutes at 4000 rpm) and the undissolved zein is isolated, rinsed and allowed to dry in a vacuum over at 60° C. to constant weight. The zein solubilized is determined by difference.

[1] = Foaming protocol for Examples 26-36, 250 mL graduated cylinder; assay type: physicochemical; details: Table 5, 1 g in 20 mL water, 250 mL cylinder, shaken 60 seconds
Experimental: Protocol for Examples 26-36
One gram of final active mix is placed in a 250 mL glass-stoppered graduated cylinder and dispersed in 20 mL of distilled, de-ionized water; it is heated to 45° C. in a water bath until the temperature of the dispersion is at equilibrium. (note: For measurements done at 20° C., the water bath is set to 20° C. and the same procedure is followed). The sealed cylinder is then shaken vigorously for 60 seconds after which time the foam volume is measured in mL and recorded.

[2] = Foaming measurement protocol (Examples 1-25), 100 mL graduated cylinder; assay type: physicochemical; details: 1 g active mix in 20 mL water, 45° C., shaken 60 seconds, 100 mL cylinder
Experimental: Foaming Measurement Protocol (Examples 1-25)
One gram of final active mix is placed in a 100 mL glass stoppered graduated cylinder and dispersed in 20 mL of distilled de-ionized water; it is heated to 45° C. in a water bath until the temperature of the dispersion is at equilibrium. The sealed cylinder is then shaken vigorously for 60 seconds after which time the foam volume is measured in mL and recorded.

Row | Zein (zein protein) [%] | Foam at 20° C. ([1]; 20° C.) [mL] | Foam at 45° C. ([1]; 45° C.) [mL] | Foam Vol. ([2]; Table 1) [mL] | Foam Vol. ([2]; Table 2) [mL] | Substance
1 | 50.0 | 122 | 135 |  |  | Coco N-Methyl Taurate
2 |  |  |  | 89.5 | 95 | sodium lauroyl isethionate [SLI - Control]
